Laboratory results from patent US20250154141A1 (University of Florida Research Foundation, Incorporated, priority 2021, published 2025).
pIC50: −log10 of the molar value. Where two headings read alike, the source gives them in different places.

Key:
MOLT-4 = assay: Cell viability assay (MTS) in MOLT-4 cells; type: cell-based; conditions: Homo sapiens, MOLT-4
Description: (§1) Acute lymphoblastic leukemia cells (MOLT-4 and RS4; 11) were incubated with increasing concentrations of Bcl-xL degraders for 48 h. Cell viability was measured by tetrazolium-based MTS assay.

RS4; 11 = assay: Cell viability assay (MTS) in RS4; 11 cells; type: cell-based; conditions: Homo sapiens, RS4-11
Description: as §1

[1] = Table 2, 48 hr, MTS, read-out: Anti-Cancer Activity IC50 (48 hr) MOLT-4
[2] = Table 2, 48 hr, MTS, read-out: Anti-Cancer Activity IC50 (48 hr) RS4, 11
[3] = Table 4, 48 h, read-out: MOLT-4 48 h IC50
[4] = Table 4, 48 h, read-out: RS4 48 h IC50

SMILES	pIC50 (MOLT-4; [1])	pIC50 (RS4; 11; [2])	pIC50 (MOLT-4; Table 2A, 48 hr, MTS, read-out: Anti-Cancer Activity IC50 (48 hr) MOLT-4)	pIC50 (RS4; 11; Table 2A, 48 hr, MTS, read-out: Anti-Cancer Activity IC50 (48 hr) RS4, 11)	pIC50 (MOLT-4; [3])	pIC50 (RS4; 11; [4])
Cc1ncsc1-c1ccc([C@H](C)NC(=O)[C@@H]2C[C@@H](O)CN2C(=O)[C@@H](NC(=O)CCCCCCC(=O)N2CCN(C[C@]3(C)CCC(c4ccc(Cl)cc4)=C(CN4CCN(c5ccc(C(=O)NS(=O)(=O)c6ccc(N[C@H](CCN7CCc8cccnc8C7)CSc7ccccc7)c([N+](=O)[O-])c6)cc5)CC4)C3)CC2)C(C)(C)C)cc1 [Compound 57, (2S,4R)-1-((S)-2-(8-(4-(((R)-4′-chloro-6-((4-(4-(((4-(((R)-4-(5,8-dihydro-1,7-naphthyridin-7(6H)-yl)-1-(phenylthio)butan-2-yl)amino)-3-nitrophenyl)sulfonyl)carbamoyl)phenyl)piperazin-1-yl)methyl)-4-methyl-2,3,4,5-tetrahydro-[1,1′-biphenyl]-4-yl)methyl)piperazin-1-yl)-8-oxooctanamido)-3,3-dimethylbutanoyl)-4-hydroxy-N—((S)-1-(4-(4-methylthiazol-5-yl)phenyl)ethyl)pyrrolidine-2-carboxamide]	6.30 to 7.00	7.00 to 7.70	–	–	–	–
Cc1ncsc1-c1ccc([C@H](C)NC(=O)[C@@H]2C[C@@H](O)CN2C(=O)[C@@H](NC(=O)CN(C)CC(=O)N2CCC(C3CCN(C[C@]4(C)CCC(c5ccc(Cl)cc5)=C(CN5CCN(c6ccc(C(=O)NS(=O)(=O)c7ccc(N[C@H](CCN8CCCOCC8)CSc8ccccc8)c(S(=O)(=O)C(F)(F)F)c7)cc6)CC5)C4)CC3)CC2)C(C)(C)C)cc1 [Compound 118]	–	–	> 7.70	> 7.70	–	–
Cc1ncsc1-c1ccc([C@H](C)NC(=O)[C@@H]2C[C@@H](O)CN2C(=O)[C@@H](NC(=O)CCCCCCCNC(=O)c2ccc(N3CCN(CC4(C)CCC(c5ccc(Cl)cc5)=C(CN5CCN(c6ccc(C(=O)NS(=O)(=O)c7ccc(N[C@H](CCN8CCOCC8)CSc8ccccc8)c(S(=O)(=O)C(F)(F)F)c7)cc6)CC5)C4)CC3)cn2)C(C)(C)C)cc1 (some centres unmarked) [Compound 6]	5.00 to 6.30	6.30 to 7.00	–	–	–	–
Cc1ncsc1-c1ccc([C@H](C)NC(=O)[C@@H]2C[C@@H](O)CN2C(=O)[C@@H](NC(=O)CNC(=O)c2ccc(N3CCN(CC4(C)CCC(c5ccc(Cl)cc5)=C(CN5CCN(c6ccc(C(=O)NS(=O)(=O)c7ccc(N[C@H](CCN8CCOCC8)CSc8ccccc8)c(S(=O)(=O)C(F)(F)F)c7)cc6)CC5)C4)CC3)cc2)C(C)(C)C)cc1 (stereo partly drawn) [Compound 10, (2S,4R)-1-((2S)-2-(2-(4-(4-((4′-chloro-4-methyl-6-((4-(4-(((4-(((R)-4-morpholino-1-(phenylthio)butan-2-yl)amino)-3-((trifluoromethyl)sulfonyl)phenyl)sulfonyl)carbamoyl)phenyl)piperazin-1-yl)methyl)-2,3,4,5-tetrahydro-[1,1′-biphenyl]-4-yl)methyl)piperazin-1-yl)benzamido)acetamido)-3,3-dimethylbutanoyl)-4-hydroxy-N—((S)-1-(4-(4-methylthiazol-5-yl)phenyl)ethyl)pyrrolidine-2-carboxamide]	6.30 to 7.00	6.30 to 7.00	–	–	–	–
Cc1ncsc1-c1ccc([C@H](C)NC(=O)[C@@H]2C[C@@H](O)CN2C(=O)[C@@H](NC(=O)CC(=O)N2CCN(CC3CCN(CC4(C)CCC(c5ccc(Cl)cc5)=C(CN5CCN(c6ccc(C(=O)NS(=O)(=O)c7ccc(N[C@H](CCN8CCOCC8)CSc8ccccc8)c(S(=O)(=O)C(F)(F)F)c7)cc6)CC5)C4)CC3)CC2)C(C)(C)C)cc1 (some centres unmarked) [Compound 17]	6.30 to 7.00	7.00 to 7.70	–	–	–	–
Cc1ncsc1-c1ccc([C@H](C)NC(=O)[C@@H]2C[C@@H](O)CN2C(=O)[C@@H](NC(=O)CCCCCCC(=O)N2CCN(CC3(C)CCC(c4ccc(Cl)cc4)=C(CN4CCN(c5ccc(C(=O)NS(=O)(=O)c6ccc(N[C@H](CCN7CCC(CO)CC7)CSc7ccccc7)c([N+](=O)[O-])c6)cc5)CC4)C3)CC2)C(C)(C)C)cc1 (stereo partly drawn) [Compound 47, (2S,4R)-1-((2S)-2-(8-(4-((4′-chloro-6-((4-(4-(((4-(((R)-4-(4-(hydroxymethyl)piperidin-1-yl)-1-(phenylthio)butan-2-yl)amino)-3-nitrophenyl)sulfonyl)carbamoyl)phenyl)piperazin-1-yl)methyl)-4-methyl-2,3,4,5-tetrahydro-[1,1′-biphenyl]-4-yl)methyl)piperazin-1-yl)-8-oxooctanamido)-3,3-dimethylbutanoyl)-4-hydroxy-N—((S)-1-(4-(4-methylthiazol-5-yl)phenyl)ethyl)pyrrolidine-2-carboxamide]	6.30 to 7.00	7.00 to 7.70	–	–	–	–

Continued, values first:

pIC50 (MOLT-4; [1])	pIC50 (RS4; 11; [2])	pIC50 (MOLT-4; Table 2A, 48 hr, MTS, read-out: Anti-Cancer Activity IC50 (48 hr) MOLT-4)	pIC50 (RS4; 11; Table 2A, 48 hr, MTS, read-out: Anti-Cancer Activity IC50 (48 hr) RS4, 11)	pIC50 (MOLT-4; [3])	pIC50 (RS4; 11; [4])	SMILES
7.00 to 7.70	7.00 to 7.70	–	–	–	–	Cc1ncsc1-c1ccc([C@H](C)NC(=O)[C@@H]2C[C@@H](O)CN2C(=O)[C@@H](NC(=O)CCCNC(=O)c2ccc(N3CCN(CCN(C)CC4(C)CCC(c5ccc(Cl)cc5)=C(CN5CCN(c6ccc(C(=O)NS(=O)(=O)c7ccc(N[C@H](CCN8CCOCC8)CSc8ccccc8)c(S(=O)(=O)C(F)(F)F)c7)cc6)CC5)C4)CC3)cc2)C(C)(C)C)cc1 (some centres unmarked) [Compound 14]
> 7.70	> 7.70	–	–	8.15	7.86	Cc1ncsc1-c1ccc([C@H](C)NC(=O)[C@@H]2C[C@@H](O)CN2C(=O)[C@@H](NC(=O)CCCCCCNC(=O)c2ccc(N3CCN(C[C@]4(C)CCC(c5ccc(Cl)cc5)=C(CN5CCN(c6ccc(C(=O)NS(=O)(=O)c7ccc(N[C@H](CCN8C[C@H]9C[C@@H]8CO9)CSc8ccccc8)c(S(=O)(=O)C(F)(F)F)c7)cc6)CC5)C4)CC3)nc2)C(C)(C)C)cc1 [Compound 73]
7.00 to 7.70	7.00 to 7.70	–	–	–	–	Cc1ncsc1-c1ccc([C@H](C)NC(=O)[C@@H]2C[C@@H](O)CN2C(=O)[C@@H](NC(=O)CCCC(=O)N2CCN(CC3CCN(CC4(C)CCC(c5ccc(Cl)cc5)=C(CN5CCN(c6ccc(C(=O)NS(=O)(=O)c7ccc(N[C@H](CCN8CCOCC8)CSc8ccccc8)c(S(=O)(=O)C(F)(F)F)c7)cc6)CC5)C4)CC3)CC2)C(C)(C)C)cc1 (some centres unmarked) [Compound 18]
7.00 to 7.70	6.30 to 7.00	–	–	–	–	Cc1ncsc1-c1ccc([C@H](C)NC(=O)[C@@H]2C[C@@H](O)CN2C(=O)[C@@H](NC(=O)CCCCCNC(=O)c2ccc(N3CCN(CC4(C)CCC(c5ccc(Cl)cc5)=C(CN5CCN(c6ccc(C(=O)NS(=O)(=O)c7ccc(N[C@H](CCN8CCOCC8)CSc8ccccc8)c(S(=O)(=O)C(F)(F)F)c7)cc6)CC5)C4)CC3)cn2)C(C)(C)C)cc1 (some centres unmarked) [Compound 5]
> 7.70	> 7.70	–	–	–	–	Cc1ncsc1-c1ccc([C@H](C)NC(=O)[C@@H]2C[C@@H](O)CN2C(=O)[C@@H](NC(=O)CCCCCCC(=O)N2CCN(C[C@]3(C)CCC(c4ccc(Cl)cc4)=C(CN4CCN(c5ccc(C(=O)NS(=O)(=O)c6ccc(N[C@H](CCN7CCCCCC7)CSc7ccccc7)c(S(=O)(=O)C(F)(F)F)c6)cc5)CC4)C3)CC2)C(C)(C)C)cc1 [Compound 60, (2S,4R)-1-((S)-2-(8-(4-(((R)-6-((4-(4-(((4-(((R)-4-(azepan-1-yl)-1-(phenylthio)butan-2-yl)amino)-3-((trifluoromethyl)sulfonyl)phenyl)sulfonyl)carbamoyl)phenyl)piperazin-1-yl)methyl)-4′-chloro-4-methyl-2,3,4,5-tetrahydro-[1,1′-biphenyl]-4-yl)methyl)piperazin-1-yl)-8-oxooctanamido)-3,3-dimethylbutanoyl)-4-hydroxy-N—((S)-1-(4-(4-methylthiazol-5-yl)phenyl)ethyl)pyrrolidine-2-carboxamide]
> 7.70	> 7.70	–	–	9.15	8.80	Cc1ncsc1-c1ccc([C@H](C)NC(=O)[C@@H]2C[C@@H](O)CN2C(=O)[C@@H](NC(=O)CCCCCCC(=O)N2CCN(C[C@]3(C)CCC(c4ccc(Cl)cc4)=C(CN4CCN(c5ccc(C(=O)NS(=O)(=O)c6ccc(N[C@H](CCN7CCCOCC7)CSc7ccccc7)c(S(=O)(=O)C(F)(F)F)c6)cc5)CC4)C3)CC2)C(C)(C)C)cc1 [Compound 59, (2S,4R)-1-((S)-2-(8-(4-(((R)-6-((4-(4-(((4-(((R)-4-(1,4-oxazepan-4-yl)-1-(phenylthio)butan-2-yl)amino)-3-((trifluoromethyl)sulfonyl)phenyl)sulfonyl)carbamoyl)phenyl)piperazin-1-yl)methyl)-4′-chloro-4-methyl-2,3,4,5-tetrahydro-[1,1′-biphenyl]-4-yl)methyl)piperazin-1-yl)-8-oxooctanamido)-3,3-dimethylbutanoyl)-4-hydroxy-N—((S)-1-(4-(4-methylthiazol-5-yl)phenyl)ethyl)pyrrolidine-2-carboxamide]
> 7.70	> 7.70	–	–	–	–	Cc1ncsc1-c1ccc([C@H](C)NC(=O)[C@@H]2C[C@@H](O)CN2C(=O)[C@@H](NC(=O)CCCCCCC(=O)N2CCN(CC3(C)CCC(c4ccc(Cl)cc4)=C(CN4CCN(c5ccc(C(=O)NS(=O)(=O)c6ccc(N[C@H](CCN(C)C)CSc7ccccc7)c([N+](=O)[O-])c6)cc5)CC4)C3)CC2)C(C)(C)C)cc1 (stereo partly drawn) [Compound 34, (2S,4R)-1-((2S)-2-(8-(4-((4′-chloro-6-((4-(4-(((4-(((R)-4-(dimethylamino)-1-(phenylthio)butan-2-yl)amino)-3-nitrophenyl)sulfonyl)carbamoyl)phenyl)piperazin-1-yl)methyl)-4-methyl-2,3,4,5-tetrahydro-[1,1′-biphenyl]-4-yl)methyl)piperazin-1-yl)-8-oxooctanamido)-3,3-dimethylbutanoyl)-4-hydroxy-N—((S)-1-(4-(4-methylthiazol-5-yl)phenyl)ethyl)pyrrolidine-2-carboxamide]
7.00 to 7.70	7.00 to 7.70	–	–	–	–	Cc1ncsc1-c1ccc([C@H](C)NC(=O)[C@@H]2C[C@@H](O)CN2C(=O)[C@@H](NC(=O)CCCCCNC(=O)c2ccc(N3CCN(CCN(C)CC4(C)CCC(c5ccc(Cl)cc5)=C(CN5CCN(c6ccc(C(=O)NS(=O)(=O)c7ccc(N[C@H](CCN8CCOCC8)CSc8ccccc8)c(S(=O)(=O)C(F)(F)F)c7)cc6)CC5)C4)CC3)nc2)C(C)(C)C)cc1 (some centres unmarked) [Compound 9]
